# Assay results taken from US20030104507A1, “Method for detection of ATP” (priority 2001, published 2003).
# Assays:
# LucPpe2m146 = test: Stability of reagent composition with LucPpe2m146 and detergent (RT, pH 7.0); type: biochemical, Photuris pennsylvanica
# Source text: (§1) The detergents used for inhibition of endogenous ATPase activity in a sample also affect activity of luciferase. […] It is ultimately the extended stability of a reagent composition, comprising an ATPase inhibitor and a luciferase enzyme, which provides a composition useful for measuring ATP, in a sample or samples, over an extended period of time.
# (§2) In this experiment, the stability of a reagent composition comprising wild type LucPpy was compared to the stability of a reagent composition comprising LucPpe2m146 at about 23° C. (room temperature). The various reagent compositions had varying detergent concentrations.
# (§3) Two solutions were created as listed below. One contained the luciferase, luciferin, MgSO4, and buffer (reagent composition). The other solution contained media plus ATP (media solution).
# (§4) 50 μg/ml enzyme (LucPpy is Promega catalog #E170A)
# (§5) Detergent (at various concentrations, see table below)
# (§6) For each reagent composition, all ingredients except the luciferase enzyme were assembled; the enzyme was then added immediately before the first luminescence reading was taken. Immediately after addition of enzyme to each reagent composition and for various timepoints thereafter, 100 μl aliquots of the reagent composition were added to wells of a 96-well microtitre luminometer plate in triplicate. To these were added 100 μl Media Solution containing the ATP. Luminescence was then immediately read on a Dynex MLX microtitreplate luminometer, 0.5 second reads per well. The average relative light unit values as well as the reaction half lives are listed below in Table I and the percent of original luminescence remaining at each timepoint is listed in Table J below. The timepoint at the top of the column indicates the time at which the first rlu measurement for the samples in that column was read. […] Times listed in Table I are the same for Table J. The values for sulfobetaine and for CTAB were generated on different days, they are presented with the control values generated in the same experiment.
# LucPpy = target: T1, LucPpy (Photinus pyralis, UniProt P08659); test: Stability of reagent composition with LucPpy and detergent (RT, pH 7.0); type: biochemical; conditions: for Average Relative Light Units / Percent of Luminescence Remaining: LucPpy
# T1 construct: purchased Promega E170A
# Source text: as §1, §2, §3, §4, §5, §6
smiles,measurement,setting,value
"CCCCCCCCCCCCOS(=O)(=O)[O-].[Na+] [SDS, Sodium dodecyl sulfate]",Average Relative Light Units,"LucPpe2m146; LucPpe2m146, 0.002%, 1.0 min (head r67)",24265.83 rlu
same,Percent of Luminescence Remaining,"LucPpe2m146; LucPpe2m146, 0.002%, 1.0 min (times of Table I r67)",100.00%
same,Average Relative Light Units,"LucPpe2m146; LucPpe2m146, 0.002%, 34 min (head r67)",24213.97 rlu
same,Percent of Luminescence Remaining,"LucPpe2m146; LucPpe2m146, 0.002%, 34 min (times of Table I r67)",99.79%
same,Average Relative Light Units,"LucPpe2m146; LucPpe2m146, 0.002%, 65 min (head r67)",24725.73 rlu
same,Percent of Luminescence Remaining,"LucPpe2m146; LucPpe2m146, 0.002%, 65 min (times of Table I r67)",101.90%
same,Average Relative Light Units,"LucPpe2m146; LucPpe2m146, 0.002%, 115 min (head r67)",22654.87 rlu
same,Percent of Luminescence Remaining,"LucPpe2m146; LucPpe2m146, 0.002%, 115 min (times of Table I r67)",93.36%
same,Average Relative Light Units,"LucPpe2m146; LucPpe2m146, 0.002%, 175 min (head r67)",23856.73 rlu
same,Percent of Luminescence Remaining,"LucPpe2m146; LucPpe2m146, 0.002%, 175 min (times of Table I r67)",98.31%
same,Average Relative Light Units,"LucPpe2m146; LucPpe2m146, 0.002%, 238 min (head r67)",23425.5 rlu
same,Percent of Luminescence Remaining,"LucPpe2m146; LucPpe2m146, 0.002%, 238 min (times of Table I r67)",96.54%
same,Average Relative Light Units,"LucPpe2m146; LucPpe2m146, 0.002%, 286 min (head r67)",23275.6 rlu
same,Percent of Luminescence Remaining,"LucPpe2m146; LucPpe2m146, 0.002%, 286 min (times of Table I r67)",95.92%
same,Average Relative Light Units,"LucPpe2m146; LucPpe2m146, 0.01%, 1.0 min (head r54)",24.46 rlu
same,Percent of Luminescence Remaining,"LucPpe2m146; LucPpe2m146, 0.01%, 1.0 min (times of Table I r54)",100.00%
same,Average Relative Light Units,"LucPpe2m146; LucPpe2m146, 0.01%, 34 min (head r54)",27.85 rlu
same,Percent of Luminescence Remaining,"LucPpe2m146; LucPpe2m146, 0.01%, 34 min (times of Table I r54)",113.85%
same,Average Relative Light Units,"LucPpe2m146; LucPpe2m146, 0.01%, 65 min (head r54)",10.77 rlu
same,Percent of Luminescence Remaining,"LucPpe2m146; LucPpe2m146, 0.01%, 65 min (times of Table I r54)",44.02%
same,Average Relative Light Units,"LucPpe2m146; LucPpe2m146, 0.01%, 115 min (head r54)",6.45 rlu
same,Percent of Luminescence Remaining,"LucPpe2m146; LucPpe2m146, 0.01%, 115 min (times of Table I r54)",26.38%
same,Average Relative Light Units,"LucPpe2m146; LucPpe2m146, 0.01%, 175 min (head r54)",2.02 rlu
same,Percent of Luminescence Remaining,"LucPpe2m146; LucPpe2m146, 0.01%, 175 min (times of Table I r54)",8.25%
same,Average Relative Light Units,"LucPpe2m146; LucPpe2m146, 0.01%, 238 min (head r54)",2.44 rlu
same,Percent of Luminescence Remaining,"LucPpe2m146; LucPpe2m146, 0.01%, 238 min (times of Table I r54)",9.97%
same,Average Relative Light Units,"LucPpe2m146; LucPpe2m146, 0.01%, 286 min (head r54)",0.62 rlu
same,Percent of Luminescence Remaining,"LucPpe2m146; LucPpe2m146, 0.01%, 286 min (times of Table I r54)",2.53%
same,Average Relative Light Units,"LucPpe2m146; LucPpe2m146, 0.05%, 15 min (head r41)",0.018 rlu
same,Percent of Luminescence Remaining,"LucPpe2m146; LucPpe2m146, 0.05%, 15 min (times of Table I r41)",100.00%
same,Average Relative Light Units,"LucPpe2m146; LucPpe2m146, 0.05%, 72 min (head r41)",0.012 rlu
same,Percent of Luminescence Remaining,"LucPpe2m146; LucPpe2m146, 0.05%, 72 min (times of Table I r41)",65.68%
same,Average Relative Light Units,"LucPpe2m146; LucPpe2m146, 0.05%, 124 min (head r41)",0.001 rlu
same,Percent of Luminescence Remaining,"LucPpe2m146; LucPpe2m146, 0.05%, 124 min (times of Table I r41)",6.09%
same,Average Relative Light Units,"LucPpe2m146; LucPpe2m146, 0.05%, 190 min (head r41)",0.006 rlu
same,Percent of Luminescence Remaining,"LucPpe2m146; LucPpe2m146, 0.05%, 190 min (times of Table I r41)",35.06%
same,Average Relative Light Units,"LucPpe2m146; LucPpe2m146, 0.05%, 251 min (head r41)",0.016 rlu
same,Percent of Luminescence Remaining,"LucPpe2m146; LucPpe2m146, 0.05%, 251 min (times of Table I r41)",87.64%
same,Half-life of Luminescence Activity,"LucPpy; Common firefly luciferase (P. pyralis), conc. 0.050",no activity
same,Average Relative Light Units,"LucPpy; 0.002%, 0.75 min (head r32)",640.290 rlu
same,Percent of Luminescence Remaining,"LucPpy; 0.002%, 0.75 min (times of Table I r32)",100.00%
same,Average Relative Light Units,"LucPpy; 0.002%, 38 min (head r32)",190.860 rlu
same,Percent of Luminescence Remaining,"LucPpy; 0.002%, 38 min (times of Table I r32)",29.81%
same,Average Relative Light Units,"LucPpy; 0.002%, 70 min (head r32)",84.210 rlu
same,Percent of Luminescence Remaining,"LucPpy; 0.002%, 70 min (times of Table I r32)",13.15%
same,Average Relative Light Units,"LucPpy; 0.002%, 94 min (head r32)",47.210 rlu
same,Percent of Luminescence Remaining,"LucPpy; 0.002%, 94 min (times of Table I r32)",7.37%
same,Average Relative Light Units,"LucPpy; 0.002%, 122 min (head r32)",25.630 rlu
same,Percent of Luminescence Remaining,"LucPpy; 0.002%, 122 min (times of Table I r32)",4.0%
same,Average Relative Light Units,"LucPpy; 0.01%, 0.75 min (head r18)",0.175 rlu
same,Average Relative Light Units,"LucPpy; 0.01%, 0.75 min (head r32)",17.584 rlu
same,Percent of Luminescence Remaining,"LucPpy; 0.01%, 0.75 min (times of Table I r18)",100.00%
same,Average Relative Light Units,"LucPpy; 0.01%, 10 min (head r18)",0.016 rlu
same,Percent of Luminescence Remaining,"LucPpy; 0.01%, 10 min (times of Table I r18)",9.14%
same,Average Relative Light Units,"LucPpy; 0.01%, 38 min (head r32)",0.001 rlu
same,Average Relative Light Units,"LucPpy; 0.05%, 0.75 min (head r5)",0.007 rlu
same,Percent of Luminescence Remaining,"LucPpy; 0.05%, 0.75 min (times of Table I r5)",100.00%
